Measurements reported in PubChem BioAssay (NCI).
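Exposure lasted 48 hours, with cells grown in 96-well plates and compounds tested at five concentrations. At the GI50, growth is halved. TGI marks complete inhibition of growth.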 Residues, ends and D or L forms follow the SMILES beside them. *: point of attachment. Boc = CC(C)(C)OC(=O)*; OBn = c1ccc(CO*)cc1

Tests used:
Experiment in all cases: inhibition of tumour cell growth, NCI panel, 48 h
786-0 renal = tested on: 786-0 renal
A549 NSCLC = tested on: A549 NSCLC
ACHN renal = tested on: ACHN renal
BT-549 breast = tested on: BT-549 breast
CAKI-1 renal = tested on: CAKI-1 renal
COLO 205 colon = tested on: COLO 205 colon
DU-145 prostate = tested on: DU-145 prostate
EKVX NSCLC = tested on: EKVX NSCLC
HCT-116 colon = tested on: HCT-116 colon
HCT-15 colon = tested on: HCT-15 colon
HL-60(TB) leukemia = tested on: HL-60(TB) leukemia
HOP-62 NSCLC = tested on: HOP-62 NSCLC
HOP-92 NSCLC = tested on: HOP-92 NSCLC
HS 578T breast = tested on: HS 578T breast
IGROV1 ovarian = tested on: IGROV1 ovarian
K-562 leukemia = tested on: K-562 leukemia
KM12 colon = tested on: KM12 colon
LOX IMVI melanoma = tested on: LOX IMVI melanoma
M14 melanoma = tested on: M14 melanoma
MDA-MB-231 breast = tested on: MDA-MB-231 breast
MDA-MB-435 = tested on: MDA-MB-435
MOLT-4 leukemia = tested on: MOLT-4 leukemia
NCI-H226 lung = tested on: NCI-H226 lung
NCI-H460 lung = tested on: NCI-H460 lung
NCI-H522 lung = tested on: NCI-H522 lung
NCI/ADR-RES ovarian = tested on: NCI/ADR-RES ovarian
OVCAR-3 ovarian = tested on: OVCAR-3 ovarian
OVCAR-4 ovarian = tested on: OVCAR-4 ovarian
OVCAR-5 ovarian = tested on: OVCAR-5 ovarian
OVCAR-8 ovarian = tested on: OVCAR-8 ovarian
PC-3 prostate = tested on: PC-3 prostate
RPMI-8226 leukemia = tested on: RPMI-8226 leukemia
SF-268 CNS = tested on: SF-268 CNS
SF-295 CNS = tested on: SF-295 CNS
SK-MEL-2 melanoma = tested on: SK-MEL-2 melanoma
SK-MEL-28 melanoma = tested on: SK-MEL-28 melanoma
SK-MEL-5 melanoma = tested on: SK-MEL-5 melanoma
SK-OV-3 ovarian = tested on: SK-OV-3 ovarian
SN12C renal = tested on: SN12C renal
SNB-19 CNS = tested on: SNB-19 CNS
SNB-75 CNS = tested on: SNB-75 CNS
SR leukemia = tested on: SR leukemia
SW-620 colon = tested on: SW-620 colon
T-47D breast = tested on: T-47D breast
TK-10 renal = tested on: TK-10 renal
U251 CNS = tested on: U251 CNS
UACC-257 melanoma = tested on: UACC-257 melanoma
UACC-62 melanoma = tested on: UACC-62 melanoma
UO-31 renal = tested on: UO-31 renal

N#CC1C(N)=NNC1c1ccc(-c2ccc(-c3nc4ccccc4o3)cc2)o1 (stereo not given)
GI50 (786-0 renal): > 100 µM | TGI (786-0 renal): > 100 µM | GI50 (A549 NSCLC): 32.3 µM | TGI (A549 NSCLC): > 100 µM | GI50 (ACHN renal): 14.6 µM | TGI (ACHN renal): 51.7 µM | GI50 (BT-549 breast): 24 µM | TGI (BT-549 breast): 75.7 µM | GI50 (CAKI-1 renal): 14.8 µM | TGI (CAKI-1 renal): 44.2 µM | GI50 (COLO 205 colon): 30.9 µM | TGI (COLO 205 colon): > 100 µM | GI50 (DU-145 prostate): 15.3 µM | TGI (DU-145 prostate): 41.1 µM | GI50 (EKVX NSCLC): 14.6 µM | TGI (EKVX NSCLC): 81.2 µM | GI50 (HCT-116 colon): 5.91 µM | TGI (HCT-116 colon): > 100 µM | GI50 (HCT-15 colon): 32.3 µM | TGI (HCT-15 colon): > 100 µM | GI50 (HL-60(TB) leukemia): 57.7 µM | TGI (HL-60(TB) leukemia): > 100 µM | GI50 (HOP-62 NSCLC): > 100 µM | TGI (HOP-62 NSCLC): > 100 µM | GI50 (HOP-92 NSCLC): 18.2 µM | TGI (HOP-92 NSCLC): > 100 µM | GI50 (HS 578T breast): 29.6 µM | TGI (HS 578T breast): > 100 µM | GI50 (IGROV1 ovarian): 69.4 µM | TGI (IGROV1 ovarian): > 100 µM | GI50 (K-562 leukemia): 64.6 µM | TGI (K-562 leukemia): > 100 µM | GI50 (KM12 colon): 24 µM | TGI (KM12 colon): 93.8 µM | GI50 (LOX IMVI melanoma): 23.3 µM | TGI (LOX IMVI melanoma): 64.7 µM | GI50 (M14 melanoma): 63.7 µM | TGI (M14 melanoma): > 100 µM | GI50 (MDA-MB-231 breast): 15.3 µM | TGI (MDA-MB-231 breast): 65.8 µM | GI50 (MDA-MB-435): 36.4 µM | TGI (MDA-MB-435): > 100 µM | GI50 (MOLT-4 leukemia): > 100 µM | TGI (MOLT-4 leukemia): > 100 µM | GI50 (NCI-H226 lung): 15.1 µM | TGI (NCI-H226 lung): 74.5 µM | GI50 (NCI-H460 lung): 23.8 µM | TGI (NCI-H460 lung): > 100 µM | GI50 (NCI-H522 lung): 53.4 µM | TGI (NCI-H522 lung): > 100 µM | GI50 (NCI/ADR-RES ovarian): 36 µM | TGI (NCI/ADR-RES ovarian): 75.6 µM | GI50 (OVCAR-3 ovarian): 2.12 µM | TGI (OVCAR-3 ovarian): 13.2 µM | GI50 (OVCAR-4 ovarian): 90.8 µM | TGI (OVCAR-4 ovarian): > 100 µM | GI50 (OVCAR-5 ovarian): 38.1 µM | TGI (OVCAR-5 ovarian): > 100 µM | GI50 (OVCAR-8 ovarian): 15.3 µM | TGI (OVCAR-8 ovarian): 88 µM | GI50 (PC-3 prostate): 40.3 µM | TGI (PC-3 prostate): > 100 µM | GI50 (RPMI-8226 leukemia): 28.6 µM | TGI (RPMI-8226 leukemia): > 100 µM | GI50 (SF-268 CNS): 20 µM | TGI (SF-268 CNS): 51.7 µM | GI50 (SF-295 CNS): 66.4 µM | TGI (SF-295 CNS): > 100 µM | GI50 (SK-MEL-2 melanoma): 37.5 µM | TGI (SK-MEL-2 melanoma): > 100 µM | GI50 (SK-MEL-28 melanoma): 26 µM | TGI (SK-MEL-28 melanoma): > 100 µM | GI50 (SK-MEL-5 melanoma): 21.4 µM | TGI (SK-MEL-5 melanoma): 60.5 µM | GI50 (SK-OV-3 ovarian): 37.4 µM | TGI (SK-OV-3 ovarian): > 100 µM | GI50 (SN12C renal): 45 µM | TGI (SN12C renal): > 100 µM | GI50 (SNB-19 CNS): > 100 µM | TGI (SNB-19 CNS): > 100 µM | GI50 (SNB-75 CNS): > 100 µM | TGI (SNB-75 CNS): > 100 µM | GI50 (SR leukemia): > 100 µM | TGI (SR leukemia): > 100 µM | GI50 (SW-620 colon): 74.9 µM | TGI (SW-620 colon): > 100 µM | GI50 (T-47D breast): 68.5 µM | TGI (T-47D breast): > 100 µM | GI50 (TK-10 renal): 25.5 µM | TGI (TK-10 renal): 74.7 µM | GI50 (U251 CNS): 28.4 µM | TGI (U251 CNS): > 100 µM | GI50 (UACC-257 melanoma): 23.1 µM | TGI (UACC-257 melanoma): > 100 µM | GI50 (UACC-62 melanoma): 23.9 µM | TGI (UACC-62 melanoma): 91.1 µM | GI50 (UO-31 renal): 30.1 µM | TGI (UO-31 renal): > 100 µM

CC(C)C(NC(=O)OC(C)(C)C)C(=O)N1CCCC1C(=O)OCc1ccccc1 (stereo not drawn) (Boc-Val-Pro-OBn; configuration not given here)
GI50 (SK-MEL-2 melanoma): 46.3 µg/mL | GI50 (SR leukemia): 90.6 µg/mL
